pIC50: −log10 of the molar value.
Test: Binding affinity opioid receptor

Row | SMILES | pIC50
1 | Cc1cc(O)cc(C)c1[C@H](C)[C@H](N)C(=O)N[C@H]1C(=O)NCC(=O)N[C@@H](Cc2ccccc2)C(=O)N[C@@H](C(=O)O)C(C)(C)SSC1(C)C [(4S,7S,13S)-13-[(2S,3S)-2-Amino-3-(4-hydroxy-2,6-dimethyl-phenyl)-butyrylamino]-7-benzyl-3,3,14,14-tetramethyl-6,9,12-trioxo-1,2-dithia-5,8,11-triaza-cyclotetradecane-4-carboxylic acid] | 6.14
2 | Cc1cc(O)cc(C)c1[C@H](C)[C@H](N)C(=O)N[C@H](C)C(=O)N[C@@H](Cc1ccccc1)C(=O)N[C@@H](CC(=O)O)C(=O)N[C@H](C(=O)N[C@H](C(=O)NCC(N)=O)C(C)C)C(C)C [(S)-3-((S)-2-{(R)-2-[(2S,3S)-2-Amino-3-(4-hydroxy-2,6-dimethyl-phenyl)-butyrylamino]-propionylamino}-3-phenyl-propionylamino)-N-{(S)-1-[(S)-1-(carbamoylmethyl-carbamoyl)-2-methyl-propylcarbamoyl]-2-methyl-propyl}-succinamic acid] | 4.77

— BindingDB's records for doi:10.1021/jm00038a004 (University of Arizona, 1994)
